We go through six compounds from patent US6627652B1, “Method of treatment with compounds having selective agonist-like activity on RXR retinoid receptors” (Allergan, Inc., priority 1993, dated 2003).

The EC50 is the concentration needed to bring the measured effect to its halfway point. Read a low EC50 as greater potency. One may read the IC50 as the point on the concentration scale where inhibition reaches its midpoint.

Values after ≈ are worked out from the molar mass of the structure shown. “Also recorded” adds a separate entry of the source. Where two headings read alike, the source gives them in different places.

The target of one data set is T1, chimeric RXRα receptor (Homo sapiens, UniProt P19793).
T1 construct: expressed in transfected cells; host or cells: HeLa cells
T1 sequence (P19793 227-458 limits assumed): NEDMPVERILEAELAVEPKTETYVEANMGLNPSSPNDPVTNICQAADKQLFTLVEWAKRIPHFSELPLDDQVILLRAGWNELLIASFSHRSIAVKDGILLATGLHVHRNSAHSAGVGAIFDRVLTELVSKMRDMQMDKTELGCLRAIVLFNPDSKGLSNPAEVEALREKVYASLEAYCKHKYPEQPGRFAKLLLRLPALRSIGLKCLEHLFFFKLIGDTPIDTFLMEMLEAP
Put plainly: Cationic Liposome Mediated Transfection Assay (ERE-CAT reporter in HeLa cells), RXRα. The class given is cell-based. The note with it: concentration giving 50% of maximum CAT activity of reference AGN 191440.

Data set [1] in a line: pharmacokinetic study, concentration in maternal plasma and embryo of mice. The class given is in vivo. The note with it: oral intubation, single dose of 10 mg/kg, FIG. 8. Here is the method:
FIG. 8 is a graph showing the concentration of compound AGN 191701 (Compound 1) in nanograms per ml, or nanograms per gram as indicated on the chart, in the plasma and embryo of mice at various times after oral intubation of a single dose of 10 mg/kg of the compound.

The next data set concerns the target T2, chimeric RARβ receptor (Homo sapiens, UniProt P10826).
T2 sequence (P10826 183-417 limits assumed): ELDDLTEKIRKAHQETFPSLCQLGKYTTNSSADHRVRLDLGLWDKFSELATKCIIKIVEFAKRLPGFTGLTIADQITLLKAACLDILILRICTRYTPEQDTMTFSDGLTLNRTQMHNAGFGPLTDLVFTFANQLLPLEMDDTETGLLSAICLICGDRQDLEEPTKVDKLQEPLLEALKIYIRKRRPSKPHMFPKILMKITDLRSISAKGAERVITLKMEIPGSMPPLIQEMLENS
Put plainly: Cationic Liposome Mediated Transfection Assay (ERE-CAT reporter in HeLa cells), RARβ.

The test system of data set [2] is limb bud mesenchymal cells. Put plainly: inhibition of chondrogenesis in high-density spot cultures of limb bud mesenchymal cells. The class given is cell-based, mouse. The note with it: for IC50: Mus musculus. Here is the method:
An in vitro bioassay which measures inhibition of chondrogenesis (bone formation) in chick embryo cells is considered a classic measure of teratogenecity. The assay is conducted as follows: High-density “spot” cultures of limb bud mesenchymal cells were used to compare the ability of various concentrations of test drugs to suppress chondrogenic differentiation as a bioassay. Forelimb buds of mouse embryos on day 12 of gestation (54±2 somites) were dissociated in a trypsin-EDTA solution, and the resultant single-cell suspension was plated as 20-μl spots (200,000 cells/spot) on plastic culture dishes. Retinoid concentrations ranging from 0.3 ng/ml to 3 μg/ml (1 nM-10 μM) were added to the culture medium (Eagle's MEM+10% fetal bovine serum, GIBCO) 24 hours after initial plating. Control cultures received only the vehicle (ethanol, concentration≦1% by vol); Retinoic acid was used as a positive control in another set of cultures. The cultures were terminated 96 hours after plating, at which time the medium was removed and the cells were fixed for 1 hour in 10% formalin containing 0.5% cetylpyridinium chloride. The cultures were rinsed in acetic acid and stained for 1 hour in 0.5% Alcian blue solution at pH 1.0, differentiated in 3% acetic acid, and then dehydrated in ethanol and scored for chondrogenesis under the microscope. An absence or reduction in the number of cartilage nodules in stained cultures as compared with control cultures was taken as a measure of suppression of chondrogenesis. The number of cartilage nodules stained in the whole spot, mean number of nodules, and standard deviations were calculated for four replicate cultures per treatment. The median concentration causing a 50% inhibition of chondrogenesis compared with controls (IC50) was calculated by logarithmic curve fitting of the dose-response data.

Another data set relates to human sebocyte cultures. Put plainly: 3H-thymidine incorporation assay in human sebocyte cultures. The conditions noted are these: FIG. 3, 8 days of treatment. The format is cell-based. As for the experimental part: An assay involving human sebocyte cultures measures the inhibition of ^3H-thymidine into cells, and thus measures inhibition of DNA synthesis and thus an anti-proliferative effect on sebocyte (i.e. a sebostatic effect). This assay is also considered a specific assay for effectiveness of a compound as a potential anti-acne drug. The test is conducted as follows. Face-lift or forehead reduction skins from cosmetic surgeries were used as sources of human sebaceous gland cells (sebocytes). Isolated sebocytes were plated in type 1 collagen coated-dishes in DMEM/F12 (1:1) medium supplemented with 8% fetal bovine serum, 2% human serum, 10 ng/ml epidermal growth factor, 1 nM cholera toxin, 1 μM hydrocortisone, and penicillin/streptomycin/amphotericin B. Secondary cultures were prepared by plating Dispase dissociated cells in collagen coated 24-well plates. […] DNA from the cells were extracted by thichoroacetic acid and perchloric acid, and assayed for radioactivity by scintillation counting and for content of DNA by the diphenylamine colorimetric method. The results were expressed as CPM/μg DNA, or as per cent of vehicle control which incorporated about 1,000-1,500 cpm/μg DNA.
(Uptake of a labelled nucleoside into DNA is a usual measure of proliferation.)

The next data set concerns the target T3, chimeric RARγ receptor (Homo sapiens, UniProt P13631).
T3 sequence (P13631 185-419 limits assumed): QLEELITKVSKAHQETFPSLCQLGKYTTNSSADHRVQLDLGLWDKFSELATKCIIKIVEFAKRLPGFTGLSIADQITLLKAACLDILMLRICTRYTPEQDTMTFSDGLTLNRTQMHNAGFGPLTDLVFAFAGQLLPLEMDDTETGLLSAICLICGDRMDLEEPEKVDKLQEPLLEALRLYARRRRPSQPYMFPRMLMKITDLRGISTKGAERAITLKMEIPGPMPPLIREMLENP
Put plainly: Cationic Liposome Mediated Transfection Assay (ERE-CAT reporter in HeLa cells), RARγ.

The next data set concerns gestating ICR mice. The data set can be described thus: in vivo teratology study in gestating ICR mice. Details: species or system mouse. The conditions noted are these: for teratogenicity (in words): conclusion from Table 2. As for the experimental part:
The methodology of the study is described as follows: ICR mice (Ace Animals, Boyertown, Pa.) were used. Mature male and virgin female ICR mice were housed in environmentally controlled rooms and acclimatized to a 12 hour light/dark cycle (light cycle 6 A.M. to 6 P.M.) for 2 weeks prior to use. All animals were maintained on Purina Lab Chow and tap water ad libitum. A group of 3-4 females was caged with a single male of proven fertility for 4 hours. Presence of a vaginal plug immediately afterward was regarded as evidence of successful mating, and this day was designated as day 0 of gestation. […] All animals were killed by cervical dislocation under mild ether anesthesia on day 17 of gestation. Upon laparotomy, the fetuses were examined for external malformations and weighed; one-half of each litter was then fixed in 95% ethanol and processed for staining of the skeleton by the rapid, alizarin red-S dye method. These preparations were examined under a dissection microscope to screen for abnormalities in the axial and the appendicular skeleton. The other half of each litter was fixed in Bouin's solution and examined by freehand razor serial sectioning to screen for anomalies of the brain, face, and palate. Differences in dose-related incidence of malformations and resorptions were assessed by computing percentages of affected conceptuses among total implantation sites. The groups were compared statistically by a method based on Student's t-tests of arcs in square root transformed percentages. Values at 0.05 probability level were considered significant. The median effective dose was calculated by logarithmic curve fitting of the dose-response data.

Another data set concerns the target T4, chimeric RARα receptor (Homo sapiens, UniProt P10276).
T4 sequence (P10276 183-417 limits assumed): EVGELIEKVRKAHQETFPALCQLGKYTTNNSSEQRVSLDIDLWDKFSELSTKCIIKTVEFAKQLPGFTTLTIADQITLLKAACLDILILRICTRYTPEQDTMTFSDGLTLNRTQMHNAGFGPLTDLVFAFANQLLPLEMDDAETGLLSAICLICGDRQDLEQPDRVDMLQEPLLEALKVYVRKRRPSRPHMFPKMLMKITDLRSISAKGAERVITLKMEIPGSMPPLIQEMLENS
Put plainly: Cationic Liposome Mediated Transfection Assay (ERE-CAT reporter in HeLa cells), RARα.

[3] abbreviates: Table 3, cultures terminated 96 hours after plating, read-out: IC50, 50% inhibition of chondrogenesis.
Where [4] appears, read: single oral dose 1 mg/kg on day 11 of gestation.
Setting [5] is: single oral dose 10 mg/kg on day 11 of gestation.
Where [6] appears, read: single oral dose 100 mg/kg on day 11 of gestation.
Where [7] appears, read: single oral dose 0.01 mg/kg on day 11 of gestation.
The mark [8] stands for this setting: single oral dose 0.1 mg/kg on day 11 of gestation.

On chimeric RXRα receptor, `C/C(=C\C=C\c1occc1C(=O)O)c1cc2c(cc1C)C(C)(C)CCC2(C)C` [Compound 2] registered an EC50 of 1060 nM.
Still for that read-out and setting: the same measure for `C/C(=C\C=C\C1C[C@H]1C(=O)O)c1cc2c(cc1C)C(C)(C)CCC2(C)C` (stereo partly drawn) [Compound 5, Cis-[2-[4-Methyl-4-(3,5,5,8,8,-pentamethyl-5,6,7,8-tetrahydronapthalen)-2-yl]-1E,3E-butadien-1-yl] 1-Cyclopropane Carboxylic Acid]: 139 nM.
As to `C/C(=C\c1cc(C(=O)O)cs1)c1cc2c(cc1C)C(C)(C)CCC2(C)C` [Compound 1, 2-[(E)-2-(5,6,7,8-Tetrahydro-3,5,5,8,8-pentamethylnaphthalen-2-yl)propen-1-yl]thiophene-4-carboxylic Acid], the “presence in maternal plasma and embryo (in words)” value in data set [1] is “present in substantial concentration in the maternal plasma and in the embryo”. Besides, the EC50 on chimeric RARβ receptor was 3350 nM; at chimeric RXRα receptor it was 67 nM; on chimeric RARγ receptor, 1070 nM. The IC50 is 19 µg/mL (≈ 51.6 µM) in data set [2] (setting [3]) and 19 µg/mL (≈ 51.6 µM) in data set [2] (text b179, read-out: IC50, inhibition of chondrogenesis). In addition, in data set [2] (ratio of IC50 values, versus Compound 7), the “times less teratogenic than Compound 7 in the chondrogenesis assay” value is “approximately 6.3×10^4 times”. Besides, in the data set on human sebocyte cultures, the “inhibition of 3H-thymidine incorporation in sebocytes (in words)” value is reported as “effective retinoid”. Also, the “teratogenicity (in words)” value in the data set on gestating ICR mice (listed as AGN 191701) was “practically not teratogenic; also recorded: very little teratogenic effect”. Also, the figures for the “# Litters Normal” value in the data set on gestating ICR mice (setting [4]), in the data set on gestating ICR mice (setting [5]) and with gestating ICR mice (setting [6]) were 1, 3 and 2, respectively. The “% Cleft Palate” value with gestating ICR mice (setting [4]) is reported as 0%; with gestating ICR mice (setting [5]), 0%; in the data set with gestating ICR mice (setting [6]), 19%. Besides, the results for the “% Limb Defects” value with gestating ICR mice (setting [4]), in the data set on gestating ICR mice (setting [5]) and with gestating ICR mice (setting [6]) were 0%, 0% and 22%, respectively. The results for the “% Resorbed” value in the data set with gestating ICR mice (setting [4]), with gestating ICR mice (setting [5]) and in the data set on gestating ICR mice (setting [6]) were 18%, 14% and 2%, respectively.
Take `C/C(=C/C=C/c1occc1C(=O)O)c1cc2c(cc1C)C(C)(C)CCC2(C)C` [Compound 3]: the EC50 at chimeric RXRα receptor is 1310 nM.
Regarding `C/C(=C\c1ccc(C(=O)O)o1)c1cc2c(cc1C)C(C)(C)CCC2(C)C` [Compound 4], the EC50 at chimeric RARβ receptor is > 10000 nM; at chimeric RXRα receptor, 516 nM; at chimeric RARγ receptor it was > 10000 nM; on chimeric RARα receptor, > 10000 nM.
In the case of `C/C(=C\c1ccc(C(=O)O)cc1)c1ccc2c(c1)C(C)(C)CCC2(C)C` [Compound 7, reference compound], the IC50 amounted to 0.003 µg/mL (≈ 0.00861 µM) in data set [2] (setting [3]) and 0.003 µg/mL (≈ 0.00861 µM) in data set [2] (text b179, read-out: IC50, inhibition of chondrogenesis (unit inferred)). Moreover, the EC50 on chimeric RXRα receptor is > 10000 nM. Also, the “teratogenicity (in words)” value in the data set on gestating ICR mice is “much more teratogenic than Compound 1”. Besides, the “# Litters Normal” value worked out at 2 in the data set on gestating ICR mice (setting [7]), 0 in the data set on gestating ICR mice (setting [8]), 0 in the data set on gestating ICR mice (setting [4]) and 0 in the data set on gestating ICR mice (setting [5]). In addition, the “% Cleft Palate” value with gestating ICR mice (setting [7]) is 29%; in the data set with gestating ICR mice (setting [8]), 100%. Besides, the “% Limb Defects” value in the data set with gestating ICR mice (setting [7]) is 20%; with gestating ICR mice (setting [8]), 100%. Moreover, the “% Resorbed” value was found to be 3% with gestating ICR mice (setting [7]), 30% with gestating ICR mice (setting [8]), 100% with gestating ICR mice (setting [4]) and 100% in the data set with gestating ICR mice (setting [5]).
